# Where two headings read alike, the source gives them in different places.
# Legend:
# [1] = molecular target: T1, soluble guanylate cyclase (sGC) (Homo sapiens (Human), UniProt Q02108+Q02153); test: sGC-HEK-cGMP assay run in the absence of SNP (HEK WC assay); type: cell-based; conditions: compound at 30 μM, absence of SNP
# Summary of the method: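 Intracellular cGMP was measured by LC/MS, using a standard curve, in HEK293 cells treated with compound for 10 min at 37° C after a 15 min 0.5 mM IBMX pretreatment, with no SNP present. Lysis and quench used 0.1 M HCl. EC50 values came from concentration-response fits.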
# [2] = molecular target: T1, soluble guanylate cyclase (sGC); test: sGC-HEK-cGMP assay run with SNP incubation (HEK WC assay); type: cell-based; conditions: for HEK WC Assay (fold increase at 30 μM in the presence of 10 μM SNP): compound at 30 μM; for EC50: in the presence of 10 uM SNP
# Summary of the method: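 EC50 values derive from concentration-response curves of intracellular cGMP in HEK293 cells, which express sGC endogenously. Compound and sodium nitroprusside were co-incubated 10 min at 37 °C after a 15-min 0.5 mM IBMX step, with 0.1 M HCl lysis and 1% DMSO vehicle.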
# Thoracic aortic rings = test: Alternative thoracic aortic rings assay (Example 19b; resting tension as 100% inhibition); design: species or system rat; conditions: Rattus norvegicus, Table 10B; for inhibition at 1 µM: read-out: Percent Relaxation at 1 μM; for inhibition at 3 µM: read-out: Percent Relaxation at 3 μM; for inhibition at 10 µM: read-out: Percent Relaxation at 10 μM; for EC50: read-out: Aortic Ring EC50
# Description: Thoracic aortic rings were dissected from anesthetized (isoflurane) male Sprague-Dawley rats weighing 275-299 g. Tissues were immediately transferred to ice-cold Krebs-Henseleit solution, which had been aerated with 95% O2 and 5% CO2 for 30 minutes. Following removal of connective tissue, aortic sections were cut into 4 rings (˜2 mm each) and suspended on 2 L-shaped hooks, with one hook fixed at the bottom of the tissue bath (Schuler Organ Bath, Harvard Apparatus) and the other connected to a force transducer (F30 Force Transducer, Harvard Apparatus). Baths contained Krebs Henseleit solution (10 mL) heated to 37° C. and aerated with 95% O2 and 5% CO2. Rings were brought to an initial tension of 0.3-0.5 g and gradually raised to a resting tension of 1.0 g over 60 minutes. Rings were rinsed with Krebs Henseleit solution (heated to 37° C. and aerated with 95% O2 and 5% CO2) at 15 minute intervals until a stable baseline was obtained. Rings were considered to be stable after a resting tension of 1.0 g was maintained (for approximately 10 minutes) without need for adjustment. Rings were then contracted with 100 ng/mL phenylephrine by adding 100 uL of a 10 μg/mL phenylephrine stock solution. Tissues achieving a stable contraction were then treated in a cumulative, dose dependent manner with test compounds prepared in dimethylsulfoxide (DMSO). In some cases, tissues were rinsed three times over a 5 minute period with Krebs-Heinseleit's solution (heated to 37° C. and aerated with 95% O2 and 5% CO2), allowed to stabilize at baseline, and then used for characterization of other test articles or DMSO effects. All data were collected using the HSE-ACAD software provided by Harvard Apparatus. […] EC50 values were calculated from concentration-response curves generated with GraphPad Prism Software.
# [3] = read-out: HEK WC Assay (% Emax at 1 μM with 10 uM SNP)
# [4] = read-out: HEK WC Assay (% Emax at 10 μM with 10 uM SNP)
# [5] = read-out: HEK WC Assay (% Emax at 30 μM with 10 uM SNP)
# T1 sequence (Q02153 whole entry): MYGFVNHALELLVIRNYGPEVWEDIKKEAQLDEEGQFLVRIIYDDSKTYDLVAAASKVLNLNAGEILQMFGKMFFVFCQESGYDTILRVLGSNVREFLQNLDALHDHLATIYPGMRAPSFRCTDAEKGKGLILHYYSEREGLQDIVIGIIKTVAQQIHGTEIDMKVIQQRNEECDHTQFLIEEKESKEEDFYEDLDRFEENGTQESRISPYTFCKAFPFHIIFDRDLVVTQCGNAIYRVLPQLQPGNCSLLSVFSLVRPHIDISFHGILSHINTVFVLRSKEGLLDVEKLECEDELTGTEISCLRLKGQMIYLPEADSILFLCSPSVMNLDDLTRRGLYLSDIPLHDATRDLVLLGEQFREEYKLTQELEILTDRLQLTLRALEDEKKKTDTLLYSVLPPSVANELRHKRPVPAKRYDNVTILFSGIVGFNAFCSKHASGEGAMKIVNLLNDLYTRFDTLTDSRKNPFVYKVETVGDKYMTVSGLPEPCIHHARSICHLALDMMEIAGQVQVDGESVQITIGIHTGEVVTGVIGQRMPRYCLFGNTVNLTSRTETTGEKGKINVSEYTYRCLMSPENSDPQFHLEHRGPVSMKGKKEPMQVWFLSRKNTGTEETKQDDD
# T1 sequence (Q02108 whole entry): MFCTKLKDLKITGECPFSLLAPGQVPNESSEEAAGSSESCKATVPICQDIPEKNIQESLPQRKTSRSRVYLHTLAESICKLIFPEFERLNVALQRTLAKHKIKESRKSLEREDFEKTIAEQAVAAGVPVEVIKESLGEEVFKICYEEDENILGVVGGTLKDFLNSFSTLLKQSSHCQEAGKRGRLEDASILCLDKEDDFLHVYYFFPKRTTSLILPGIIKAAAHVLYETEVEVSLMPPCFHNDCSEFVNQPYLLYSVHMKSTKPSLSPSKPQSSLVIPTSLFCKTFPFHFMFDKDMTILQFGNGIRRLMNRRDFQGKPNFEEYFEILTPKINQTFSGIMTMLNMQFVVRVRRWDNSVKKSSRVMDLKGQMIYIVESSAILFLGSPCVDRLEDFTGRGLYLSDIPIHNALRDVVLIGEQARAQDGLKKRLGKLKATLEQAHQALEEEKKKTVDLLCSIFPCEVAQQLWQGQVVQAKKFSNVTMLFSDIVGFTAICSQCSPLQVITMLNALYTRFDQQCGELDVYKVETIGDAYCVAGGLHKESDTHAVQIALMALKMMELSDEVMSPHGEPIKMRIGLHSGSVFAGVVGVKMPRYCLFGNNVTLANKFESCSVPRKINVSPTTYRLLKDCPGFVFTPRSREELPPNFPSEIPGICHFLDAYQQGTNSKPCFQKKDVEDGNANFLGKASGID
SMILES,HEK WC Assay (fold increase at 30 μM in the absence of SNP) [1],HEK WC Assay (fold increase at 30 μM in the presence of 10 μM SNP) [2],EC50 [2],"Emax [2, 3]","Emax [2, 4]","Emax [2, 5]",EC50 (Thoracic aortic rings),inhibition at 1 µM (Thoracic aortic rings),inhibition at 3 µM (Thoracic aortic rings),inhibition at 10 µM (Thoracic aortic rings)
CC(C)C(=O)Nc1cnc(-c2cc(-c3ccon3)n(Cc3ccccc3F)n2)nc1N [Compound I-165],D (D = 5 to <10 fold increase),F (F = 20 to <30 fold increase),< 20 µM,40 to 60%,80 to 100%,100 to 120%,< 2 µM,60 to 80%,80 to 100%,100 to 120%
CC(=O)Nc1cnc(-c2cc(-c3ncco3)n(Cc3ccccc3F)n2)nc1N [Compound I-151],C (C = 2 to <5 fold increase),D (D = 5 to <10 fold increase),< 20 µM,,60 to 80%,60 to 80%,< 2 µM,80 to 100%,100 to 120%,100 to 120%
COCC(=O)Nc1cnc(-c2cc(-c3ccon3)n(Cc3ccccc3F)n2)nc1N [Compound I-177],D (D = 5 to <10 fold increase),E (E = 10 to <20 fold increase),< 20 µM,40 to 60%,80 to 100%,80 to 100%,< 2 µM,80 to 100%,80 to 100%,
O=C(Nc1cnc(-c2cc(-c3ccon3)n(Cc3ccccc3F)n2)nc1O)c1ccccc1 [Compound I-158],C (C = 2 to <5 fold increase),,100 to 300 µM,0 to 10%,20 to 40%,20 to 40%,4 to 8 µM,10 to 20%,40 to 60%,80 to 100%
Nc1nc(-c2cc(-c3ccon3)n(Cc3ccccc3F)n2)ncc1NC(=O)c1ccc(F)cc1 [Compound I-168],E (E = 10 to <20 fold increase),G (G = 30 to <40 fold increase),< 20 µM,100 to 120%,100 to 120%,100 to 120%,< 2 µM,60 to 80%,100 to 120%,100 to 120%
Nc1nc(-c2cc(-c3ccon3)n(Cc3ccccc3F)n2)ncc1NC(=O)c1ccccn1 [Compound I-162],E (E = 10 to <20 fold increase),G (G = 30 to <40 fold increase),< 20 µM,,80 to 100%,60 to 80%,< 2 µM,100 to 120%,> 120%,
Nc1nc(-c2cc(-c3ccon3)n(Cc3ccccc3F)n2)ncc1N1CCCC1=O [Compound I-169],C (C = 2 to <5 fold increase),D (D = 5 to <10 fold increase),< 20 µM,20 to 40%,40 to 60%,60 to 80%,< 2 µM,40 to 60%,80 to 100%,
COc1ccccc1C(=O)Nc1cnc(-c2cc(-c3ccon3)n(Cc3ccccc3F)n2)nc1N [Compound I-166],D (D = 5 to <10 fold increase),G (G = 30 to <40 fold increase),< 20 µM,60 to 80%,80 to 100%,100 to 120%,< 2 µM,40 to 60%,80 to 100%,100 to 120%

# The next lines start with results.
HEK WC Assay (fold increase at 30 μM in the absence of SNP) [1],HEK WC Assay (fold increase at 30 μM in the presence of 10 μM SNP) [2],EC50 [2],"Emax [2, 3]","Emax [2, 4]","Emax [2, 5]",EC50 (Thoracic aortic rings),SMILES,inhibition at 1 µM (Thoracic aortic rings),inhibition at 3 µM (Thoracic aortic rings),inhibition at 10 µM (Thoracic aortic rings)
E (E = 10 to <20 fold increase),E (E = 10 to <20 fold increase),< 20 µM,60 to 80%,80 to 100%,100 to 120%,< 2 µM,Nc1nc(-c2cc(-c3ccon3)n(Cc3ccccc3F)n2)ncc1NC(=O)c1ccccc1Cl [Compound I-185],60 to 80%,100 to 120%,100 to 120%
D (D = 5 to <10 fold increase),F (F = 20 to <30 fold increase),< 20 µM,60 to 80%,60 to 80%,80 to 100%,< 2 µM,Nc1nc(-c2cc(-c3ncco3)n(Cc3ccccc3F)n2)ncc1NC(=O)c1ccccc1 [Compound I-186],60 to 80%,80 to 100%,100 to 120%
E (E = 10 to <20 fold increase),E (E = 10 to <20 fold increase),< 20 µM,80 to 100%,100 to 120%,100 to 120%,< 2 µM,N#CC1(C(=O)Nc2cnc(-c3cc(-c4ccon4)n(Cc4ccccc4F)n3)nc2N)CC1 [Compound I-238],80 to 100%,100 to 120%,100 to 120%
C (C = 2 to <5 fold increase),E (E = 10 to <20 fold increase),< 20 µM,20 to 40%,40 to 60%,40 to 60%,< 2 µM,Oc1nc(-c2cc(-c3ccon3)n(Cc3ccccc3F)n2)ncc1C(F)(F)F [Compound I-216],40 to 60%,80 to 100%,100 to 120%
E (E = 10 to <20 fold increase),F (F = 20 to <30 fold increase),< 20 µM,80 to 100%,100 to 120%,100 to 120%,< 2 µM,Nc1nc(-c2cc(-c3ccon3)n(Cc3ccccc3F)n2)ncc1NC(=O)C1(C(F)(F)F)CC1 [Compound I-237],60 to 80%,80 to 100%,100 to 120%
C (C = 2 to <5 fold increase),E (E = 10 to <20 fold increase),20 to 40 µM,,20 to 40%,40 to 60%,< 2 µM,Fc1ccccc1Cn1nc(-c2ccccn2)cc1-c1ncon1 [Compound I-304],20 to 40%,60 to 80%,80 to 100%

# Reference: US10189809B2, “SGC stimulators” (Ironwood Pharmaceuticals, Inc., priority 2010, dated 2019)
